Data on three compounds can be found in US7109181B2, “Joint lubrication with P2Y purinergic receptor agonists” (Inspire Pharmaceuticals, Inc., priority 2001, dated 2006).

The experiment has as its system synovial fibroblasts. Briefly: Measurement of cytosolic calcium in cultured synovial fibroblasts (Fluo-3 AM, FLIPR). Conditions: synovial fibroblasts stimulated with increasing concentrations of P2Y receptor agonists; FIG. 1. The format is cell-based. From the text: The pharmaceutical utility of compounds of this invention is indicated by the cytosolic calcium assay for P2Y2 and other P2Y receptor activity. This widely used assay, as described in Pendergast, et al. (2001) (Bioorg. Med. Chem. Lett. 11, 157-160), relies on the measurement of increased cytosolic calcium levels to determine the biological activity of compounds that activate receptors linked via G-proteins to phospholipase C. The efficacy of these compounds is reflected in their ability to alter and/or enhance the secretory activity of the joints, including but not limited to, the knee, hip, and shoulder, to effectuate the agent's target response. The target response is the improvement of joint lubrication and movement.
A conventional technique was used to detect increases in cytosolic calcium induced by P2Y receptor agonists, a technique familiar to those skilled in the art. Cells were seeded in 96-well plates and used for cytosolic calcium assays. On the day of the assay, the growth medium was aspirated and replaced with a solution of Fluo-3 AM (2.5 μM final concentration) in an assay buffer consisting of (mM): KCl (10), NaCl (118), CaCl2 (2.5), MgCl2 (1), HEPES (20), glucose (10), pH 7.4. Probenecid (Sigma Chemical Co.) was added to the dye load and dye wash medium at a working concentration of 2.5 mM to increase dye retention in the cells. After a 60 minute incubation with Fluo-3 AM at 25° C., cells were washed free of dye (Columbus Plate Washer, TECAN U.S., Inc., Research Triangle Park, N.C.) and were stimulated with increasing concentrations of P2Y receptor agonists. Intracellular calcium levels were simultaneously monitored in each well by measuring the changes in fluorescence intensity using the FLIPR (Molecular Devices Corp., Sunnyvale, Calif.).
Synovial fibroblasts were subjected to the cytosolic calcium assay described above. […] The induction of increases in cytosolic calcium by ATP and UTP in synovial fibroblasts indicated the pharmaceutical utility of P2Y2 receptor agonists in the joint.
As to `O=c1ccn([C@@H]2O[C@H](COP(=O)(O)OP(=O)(O)OP(=O)(O)O)[C@@H](O)[C@H]2O)c(=O)[nH]1` [UTP, uridine-5′-triphosphate], the “effect on cytosolic calcium levels” value is given as “stimulate increases in cytosolic calcium”.
Regarding `Nc1ncnc2c1ncn2[C@@H]1O[C@H](COP(=O)(O)OP(=O)(O)OP(=O)(O)O)[C@@H](O)[C@H]1O` [ATP, adenosine-5′-triphosphate], the “effect on cytosolic calcium levels” value is on record as “stimulate increases in cytosolic calcium”.
Consider `CSc1nc(N)c2ncn([C@@H]3O[C@H](COP(=O)(O)OP(=O)(O)O)[C@@H](O)[C@H]3O)c2n1` [2-methylthioADP, reference compound], for which the “effect on cytosolic calcium levels” value is reported as “did not alter cytosolic calcium concentration”.
